“Also recorded” adds a separate entry of the source.

Series [1] concerns CHK1 and CHK2 phosphorylation in LN229 MGMT+/−, MMR+/− cells. As to the kind of experiment: Western blotting of checkpoint kinase phosphorylation. It is filed as cell-based, human. Particulars: 20 μM, 24 or 48 h. How it is done: Western Blotting. For phospho-protein analysis experiments, cells were lysed in 1× RIPA buffer (Cell Signaling Technology, #9806) supplemented with 1× Protease Inhibitor Cocktail (Roche) and 1× PhosSTOP Phosphatase Inhibitor Cocktail (Sigma). For all other western blot analyses, cells were lysed in lysis buffer (50 mM HEPES, 250 mM NaCl, 5 mM EDTA, 1% NP-40) supplemented with 1× Protease Inhibitor Cocktail (Roche). The de-ubiquitination inhibitor N-ethylmaleimide (NEM, 4 mM) was added in FANCD2 ubiquitination analysis experiments. Proteins were separated using NuPAGE 4-12% Bis-Tris or 3-8% Tris-Acetate Gels (Invitrogen) and transferred to Immobilon-P PVDF membrane (Millipore) for western blotting. Membranes were blocked with 5% milk in TBS-T for 1 h prior to primary antibody addition overnight at 4° C. […] Where shown, bands were quantified using ImageJ software.
A general note: In western blotting, separated proteins are transferred to a membrane and probed.

Series [2] deals with FANCD2 ubiquitination in LN229 MGMT+/−, MMR+/− cells. As to the kind of experiment: Western blot analysis of FANCD2 ubiquitination. It is filed as cell-based, human. As to the method: FIGS. ZS9A-ZS9G. […] (FIG. ZS9A) Representative images of micronuclei identification. (FIG. ZS9B) Validation of micronuclei identification using olaparib as positive control. Change in percent cells with 1 micronuclei from baseline (DMSO control) after treatment with olaparib ([…]) for 48 h in LN229 MGMT+/−, MMR+/− cells. Columns, mean; error bars, SD; […] technical replicates; **** p<0.0001. […] (FIG. ZS9G) Western blot analysis of FANCD2 ubiquitination in LN229 MGMT+/−, MMR+/− cells and PD20 FANCD2-deficient cells, complemented with empty vector (FANCD2+EV), wildtype FANCD2 (PD20+FD2) or ubiquitination-mutant FANCD2 (PD20+KR). The % FANCD2 ubiquitination (% FANCD2 Ub.) is quantified as the background-corrected integrated band intensity of the upper band divided by the sum of the background-corrected integrated band intensities of the upper and lower bands. The fold change in % FANCD2 ubiquitination is presented for each cell line relative to DMSO-treated cells. Vinculin serves as loading control. For (FIG. ZS9D), (FIG. ZS9E), and (FIG. ZS9F), points, mean; error bars, SD; n=3 technical replicates.
Western Blotting. […] Where shown, bands were quantified using ImageJ software.

Series [3] concerns LN229 MGMT−/MMR+ and LN229 MGMT−/MMR− (or MGMT−/MSH6−) flank tumors. As to the kind of experiment: Murine flank tumor models. In kind it is in vivo. Particulars: for median OS: Kaplan-Meier. As to the method: Mouse Protocols for Flank Studies. A mouse tumor model was established by subcutaneously implanting human LN229 (MGMT−/MMR+) or LN229 (MGMT−/MMR−) cells. Cells were cultured as a monolayer in DMEM+10% FBS (Thermo Fisher) at 37° C. in a humidified atmosphere with 5% CO2 and passaged between one and three days prior to implantation and media was replaced every 2-3 days as needed to maintain cell viability. Cells were not allowed to exceed 80% confluency. On the day of implantation, cells were trypsinized, washed with complete media and pelleted by centrifugation at 1200 rpm for 5 minutes. The supernatant was decanted, and cells were washed three times with sterile PBS and pelleted by centrifugation. During the final centrifugation, viability was determined using trypan blue exclusion. Cells were resuspended in sterile PBS and diluted 1:1 in Matrigel (Corning, Cat #47743-716) for a final concentration of 5×10^6 cells/100 μL. 5 million cells were injected into the flank of female nude mice (Envigo, Hsd:Athymic Nude-Foxn1^nu, 3-4 weeks age, 15 g). Once tumors reached a minimum volume of 100 mm^3, mice were randomized and administered either KL-50 (4a; 5 mg/kg MWF×3 weeks), TMZ (1a; 5 mg/kg MWF×3 weeks), or vehicle (10% cyclodextrin) by oral gavage. Caliper measurements were obtained during the dosing period and at least two weeks following treatment. Mice were euthanized if body weight loss exceeded 20% or if tumor volume increased to greater than 2000 mm^3. Kaplan-Meier analysis was used to evaluate survival rate based on death or removal from study.
In a second study, mice were randomized and administered either KL-50 (4a) or vehicle (10% cyclodextrin) by oral gavage or intraperitoneal injection on either M-F×1 or MWF×3 cycles at 5, 15, or 25 mgs/kg. Caliper measurements were obtained during the dosing period and at least two weeks following treatment. Mice were euthanized if body weight loss exceeded 20% or if tumor volume increased to greater than 2000 mm^3.
The third study involved MGMT−/MMR+ and MGMT−/MSH6− (shMSH6) LN229 cells. Mice tumors were allowed to grow to a larger average starting volume of ˜350 mm^3 before they were randomized and administered either KL-50 (4a; 25 mg/kg MWF×3 weeks) or vehicle (10% cyclodextrin) by oral gavage. Caliper measurements were obtained during the dosing period and at least two weeks following treatment. Mice were euthanized if body weight loss exceeded 20% or if tumor volume increased to greater than 3000 mm^3.

[4] abbreviates: LN229 MGMT−/MMR− flank tumor-bearing mice, 5 mg/kg P.O. MWF×3 weeks.

As to `NC(=O)c1ncn2c(=O)n(CCF)nnc12` [KL-50, 3-(2-fluoroethyl)-4-oxo-3H,4H-imidazo[4,3-d][1,2,3,5]tetrazine-8-carboxamide], the “CHK1 and CHK2 phosphorylation (in words)” value in series [1] is “induced CHK1 and CHK2 phosphorylation in MGMT− cells regardless of MMR status”. Moreover, the “FANCD2 ubiquitination (in words)” value in series [2] is given as “specifically in MGMT− cells”. In series [3] (5 mg/kg P.O. MWF×3 weeks), the “tumor growth, MGMT−/MMR+ flank tumors (in words)” value was “statistically non-inferior to TMZ (1a)” and the “tumor growth, MGMT−/MMR− flank tumors (in words)” value is on record as “potently suppressed tumor growth”. Moreover, in series [3] (setting [4]), the “increase in median OS vs TMZ” value is “greater than 5 week” and the “median OS” value is “greater than 15 weeks”. The “body weight (in words)” value in series [3] (LN229 flank tumor experiments, 5 mg/kg P.O. MWF×3 weeks) is listed as “no significant changes in body weight”. In addition, in series [3] (MGMT−/MMR+ and MGMT−/MMR− flank tumors, 5, 15, 25 mg/kg, MWF×3 weeks or M-F×1 week, PO or IP), the “efficacy and toxicity over regimens (in words)” value was “effective and non-toxic; also recorded: equal efficacy with no observable increases in toxicity”. For the same compound, the “growth of large tumors (in words)” value in series [3] (~350-400 mm^3 MGMT−/MMR+ and MGMT−/MSH6− tumors, 25 mg/kg PO MWF×3 weeks) is “potently suppressed the growth”.

Turning to `Cn1nnc2c(C(N)=O)ncn2c1=O` [TMZ, temozolomide, reference compound], the “CHK1 and CHK2 phosphorylation (in words)” value in series [1] is “only induced phospho-CHK1 and —CHK2 in MGMT−/MMR+ cells”. For the same compound, in series [2], the “FANCD2 ubiquitination (in words)” value was “induced FANCD2 ubiquitination but only in MGMT−/MMR+ cells”. Besides, in series [3] (5 mg/kg P.O. MWF×3 weeks), the “tumor growth, MGMT−/MMR+ flank tumors (in words)” value is recorded as “suppressed tumor growth” and the “tumor growth, MGMT−/MMR− flank tumors (in words)” value is “no efficacy”. In addition, in series [3] (setting [4]), the “median OS” value is 10 weeks.

Values taken from patent US20240400572A1, “COMPOUNDS AND METHODS FOR TREATING CANCERS THAT ARE MGMT DEFICIENT REGARDLESS OF MMR STATUS” (Yale University, priority 2021, published 2024).
